Assay results reported in patent US20210189342A1, “COMPOSITIONS AND METHODS FOR MODULATING MONOCYTE AND MACROPHAGE INFLAMMATORY PHENOTYPES AND IMMUNOTHERAPY USES THEREOF” (Verseau Therapeutics, Inc., priority 2018, published 2021).

Tests used:
[1] = system: tumor tissue slices; test: tumor tissue slice cultures; type: cell-based, human; details: 10 ug/mL
From the text: A second system was used to further confirm the results of the dissociated tumor assays. Briefly, dissociated tumor assays have the advantage of being able to normalize the number of cells in every condition performed. They also have the potential downside of losing the tumor structure and non-cellular stromal components. […] Upon acquisition of fresh tumor tissue sample (less than 24 hrs), surrounding fat, fibrous, and necrotic areas were removed from the tumor sample as much as possible using scissors and scalpels. The tissue was embedded in the center of a tissue mold using 4% agarose. After solidifying, the agarose block was dislodged, and the mold was glued to a Leica VT1000 S microtome tissue holder and sectioned into 300 to 400 micron sections using the Leica VT1000 S microtome. […] At the end of the study, efficacy was evaluated by analyzing cytokine/chemokine amounts secreted into the culture supernatant measured using the Invitrogen™ Luminex™ Cytokine Human Magnetic 25-Plex Panel according to the manufacturer's instructions. […]

[2] = system: peripheral blood mononuclear cells (PBMCs); type: cell-based, human; details: SEB assay, 5 μg/ml, FIG. 5
[3] = system: dissociated tumors; test: dissociated tumor assay; type: cell-based, human; details: 10 ug/mL, 24 or 48 hrs, FIG. 8
From the text: One system used for this purpose was a dissociated tumor assay. Dissociated tumors contain all the various cell populations present in the tumor microenvironment, including, for example, tumor cells, immune cells, and support cells. These viable single cell suspensions are useful for many applications and allow for the normalization of cell number and composition within each replicate of an experiment. For performing dissociated tumor experiments upon acquisition of fresh tumor tissue (less than 24 hrs), surrounding fat, fibrous areas, and necrotic areas were removed from a tumor sample using scissors and scalpels. The tumor was cut into small pieces of 2-4 mm^3. The Tumor Dissociation Kit enzyme mix (MACS Miltenyi Biotec) was prepared according to the manufacturer's protocol. Tumor pieces and dissociation enzymes were transferred into 5 ml Snaplock Microcentrifuge tubes and the tissue was minced using a pair of straight scissors. Tubes were placed in a 37° C. shaker at 200-250 rpm for 45 minutes to 1 hour. At the end of the incubation time, the digested tumor was filtered through […] cell strainers into 50 mL Falcon™ conical centrifuge tubes. […] At the end of the study, cytokines/chemokines in the culture supernatant were measured using the Invitrogen™ Luminex™ Cytokine Human Magnetic 25-Plex Panel according to the manufacturer's instructions. […]

[4] = system: M2 macrophages; test: macrophage differentiation assay with antibodies, M1 and M2 markers; type: cell-based; details: primary human macrophages under M2 skewing; antibody on day 1, 3 and 7; FIG. 4
From the text: Monocytes were differentiated in vitro to M1-like (Type 1) and/or M2-like (Type 2) phenotypes (Ries et a. (2014) Cancer Cell 25:846-859; Vogel et al. (2014) Immunobiol. 219:695-703). In order to differentiate monocytes into M1 versus M2 phenotypes monocytes were isolated from whole blood of healthy donors by Ficoll separation with RosetteSep™ Human Monocyte Enrichment Cocktail (Stemcell Technologies, Vancouver, Canada) according to the manufacturer's instructions. Isolated monocytes were arrayed in 24-well plates overnight in IMDM Media containing 10% fetal bovine serum and non-adherent cells were washed off after 24 hours. […] Expression of M1 and M2 macrophage markers and surface expressed targets was assessed by flow cytometry. […]
Labeled cells were washed twice with FACS buffer and fixed with PBS+2% paraformaldehyde for flow cytometry analysis on an Attune™ flow cytometer (ThermoFisher). Data were analyzed via FlowJo software. Morphology was assessed via microscopy.
Briefly, monocytes were isolated from whole blood of fresh donors by Ficoll separation with RosetteSep™ Human Monocyte Enrichment Cocktail (Stemcell Techhnologies, Vancouver Canada) according to the manufacturer's instructions. […] Cells were assessed for expression of M1 and M2 markers as described above and cell free supernatants were collected for analysis. […]

[5] = system: M2 macrophages; test: M2 macrophage polarization, antibodies added only during the last two days, cytokines; type: cell-based, human; details: 10 ug/mL (77, 78, 81-84 at 1 ug/mL), FIGS. 4D-4G
Method: Briefly, monocytes were isolated from whole blood of fresh donors by Ficoll separation with RosetteSep™ Human Monocyte Enrichment Cocktail (Stemcell Techhnologies, Vancouver Canada) according to the manufacturer's instructions. Isolated monocytes were arrayed in 24-well plates overnight in Iscove's Modified Dubelcos Media ([…]) (ThermoFisher) media containing 10% fetal bovine serum and non-adherent cells were washed off after 24 hours. Monocytes were differentiated into macrophages by culturing for 6 days in IMDM 10% FBS plus 50 ng/ml human M-CSF for M2 macrophages, or 50 ng/ml GM-CSF (Biolegend, San Diego, Calif.) for M1 macrophages. M1 macrophages were activated on day 6 with IFN-gamma and LPS, whereas M2 macrophages were polarized on day 6 with 20 ng/ml IL-10 and activated on day 7 with 100 ng/ml LPS. […] Cells were assessed for expression of M1 and M2 markers as described above and cell free supernatants were collected for analysis. Data are representative of at least 3-4 healthy donors.
Beyond phenotypic surface markers, M1 (such as Type 1) and M2 (such as Type 2) macrophages produce different cytokines and chemokines. For example, M1 macrophages produce more pro-inflammatory cytokines, including but not limited to, GM-CSF, IL-12, and TNF alpha, whereas M2 macrophages produce more pro-tumorigenic and immunosuppressive cytokines, such as VEGF, IL-10, and TGFb. […]

## pembrolizumab
[1]; GI tumor, FIG. 9B
  cytokine response: do not provide a response
[1]; lung tumor, FIG. 9A
  cytokine response (IFNg, TNFα): showed a response
[2]; donor 2
  T cell activity (IFNg production): no increase in T cell activity
[2]; donor 5
  T cell-specific response as indicated by IFNg production: increase in T cell-specific response
[3]
  IFNg production: stimulating IFNg production
  IL-10 production: induces immunosuppressive IL-10

B1: Ab 8: recombinant human IgG4 (S228P) chimera, kappa light chain; variable regions in Table 6 (antibody, V domains shown)
VH: QVQLQQSGPGLVKPSQTLSLTCAISGDSVSSNIAAWHWIRLSPSRGLEWLGRTYYRRSKWNYDYALSVKSRININPDTSKNLFSLQLNSVTPEDTAVYYCTRGGGRAHSAWGQGTLVTVSS
VL: EIVLTQSPGTLSVSPGERATLSCRASQSVSRSHLAWYQQKPGQAPRLLIFGASSRATGIPDRFSGSGSGTDFTLTISRLEPEDFAVYYCQQYGRPGVTFGQGTKVEIK
modifications: human IgG4 S228P constant regions
[4]
  effect on macrophage phenotypic marker sets (classical and novel biomarkers), reversal of skewing towards M2: dose-titratable effect
[5]
  polarization of M2 macrophages to a more M1-like state, increase in pro-inflammatory cytokines: dramatically effect polarization of M2 macrophages to a more M1-like state

B2: Ab 18: recombinant human IgG4 (S228P) chimera, lambda light chain; variable regions in Table 6 (antibody, V domains shown)
VH: EVQLLESGGGLVRPGGSLRLSCAASGFTFSSYAMSWVRQAPGKGLEWVSAISGSGGSTYYADSVKGRFTISRDNSKNTLYLQMNSLRAEDTAVYYCARDKRLTYWGQGTMVTVSS
VL: QSVVTQPPSVSAAPGQKVTISCSGSSSNIGNNYVSWYQQLPGTAPKLLIYDNNKRPSGIPDRFSGSKSGTSATLGITGLQTGDEADYYCGTWDSSLSARVFGGGTKVTVL
modifications: human IgG4 S228P constant regions
[4]
  effect on macrophage phenotypic marker sets (classical and novel biomarkers), reversal of skewing towards M2: dose-titratable effect
[5]
  polarization of M2 macrophages to a more M1-like state, increase in pro-inflammatory cytokines: dramatically effect polarization of M2 macrophages to a more M1-like state
